Assay results as given in patent US20250243194A1, “ANTAGONIST OF ADENOSINE RECEPTORS” (AdoRx Therapeutics Limited, priority 2022, published 2025).
Read-outs that look alike come from different tables or passages of the source.

Key:
[1] = biological target: human Adenosine A2b receptor (Homo sapiens (Human), UniProt P29275); assay: Adenosine receptor TR-FRET binding assay (A2b); details: inhibition of binding of 30 nM CA200645; CHO cell membranes; Ki from IC50 by Cheng and Prusoff
Method: (§1) All FRET binding experiments were conducted at room temperature in white 384-well plates, in assay binding buffer containing 1× LabMed (Cisbio, France), 100 μg/mL saponin, 1% DMSO and 0.02% pluronic acid. Binding of the fluorescently labelled Adenosine receptor antagonist XAC (CA200645, FRET acceptor) to terbium-labelled A1, A2a, A2b and A3 adenosine receptors (FRET donors) was detected by time-resolved FRET due to the close proximity of the donor and acceptor in a binding event. To investigate the ability of unlabelled test compounds to bind to Adenosine A1, A2a, A2b and A3 receptors, dose response curves were constructed that determined the ability of a range of concentrations to inhibit the binding of 30 nM CA200645 to the A2b receptor and 100 nM CA200645 to the A1, A2a, and A3 receptor.
(§2) Serial dilution (1:3 dilutions) of test compounds in neat DMSO and transfer of a 400 nL sample of test compound into the assay plate was carried out using the Mosquito (TTP Labtech, UK). The compound samples were incubated for 2 hours at room temperature with a fixed concentration of CA200645 defined for each receptor (see above) and CHO cell membranes containing the human Adenosine A1 (0.5 μg/well), A2a (0.3 μg/well), A2b (1 μg/well) or A3 (1 μg/well) receptor in 40 μL of assay buffer. Total and non-specific binding of CA200645 was determined in the absence and presence of 10 μM XAC, respectively. Following 2 hours incubation, the level of CA200645 binding was detected on a Pherastar FSX (BMG Labtech, Germany) using standard TR-FRET settings. The terbium donor was excited with three laser flashes at a wavelength of 337 nm, and donor and acceptor emission was detected at 620 nm and 665 nm wavelengths, respectively. FRET ratios were obtained by multiplying the acceptor/donor ratio value by 10,000. Specific binding was determined by subtracting the non-specific binding FRET ratio from the total binding FRET ratio. Compound IC50 curves were analysed using GraphPad Prism 7.0 (GraphPad, USA) and Ki affinity values were determined from the obtained IC50 values using the method of Cheng and Prusoff.

[2] = biological target: human Adenosine A2a receptor (Homo sapiens (Human), UniProt P29274); assay: Adenosine receptor TR-FRET binding assay (A2a)
Method: as §1, §2

[3] = biological target: human Adenosine A1 receptor (Homo sapiens (Human), UniProt P30542); assay: Adenosine receptor TR-FRET binding assay (A1)
Method: as §1, §2

[4] = inhibition of binding of 100 nM CA200645, CHO cell membranes, Ki from IC50 by Cheng and Prusoff

Chain of human Adenosine A2a receptor (P29274 whole entry): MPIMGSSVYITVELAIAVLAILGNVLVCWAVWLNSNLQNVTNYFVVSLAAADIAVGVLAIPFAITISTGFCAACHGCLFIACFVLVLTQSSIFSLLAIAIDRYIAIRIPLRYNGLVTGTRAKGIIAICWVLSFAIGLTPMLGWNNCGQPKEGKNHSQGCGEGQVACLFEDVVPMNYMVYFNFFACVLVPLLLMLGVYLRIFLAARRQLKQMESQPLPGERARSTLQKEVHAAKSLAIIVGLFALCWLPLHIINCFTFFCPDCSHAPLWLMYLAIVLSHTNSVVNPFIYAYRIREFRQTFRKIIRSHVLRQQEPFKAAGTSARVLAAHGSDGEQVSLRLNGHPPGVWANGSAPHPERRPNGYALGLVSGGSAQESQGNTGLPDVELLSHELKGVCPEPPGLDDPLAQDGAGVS
Chain of human Adenosine A2b receptor (P29275 whole entry): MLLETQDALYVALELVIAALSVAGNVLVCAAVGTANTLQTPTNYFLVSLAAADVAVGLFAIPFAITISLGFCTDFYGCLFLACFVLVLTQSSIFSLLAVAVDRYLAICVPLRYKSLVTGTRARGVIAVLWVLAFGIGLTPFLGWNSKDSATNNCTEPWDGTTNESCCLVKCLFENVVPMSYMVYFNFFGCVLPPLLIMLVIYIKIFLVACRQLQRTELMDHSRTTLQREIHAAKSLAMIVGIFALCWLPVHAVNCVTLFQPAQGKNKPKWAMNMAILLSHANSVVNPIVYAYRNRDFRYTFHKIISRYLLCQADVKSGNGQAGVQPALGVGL
Chain of human Adenosine A1 receptor (P30542 whole entry): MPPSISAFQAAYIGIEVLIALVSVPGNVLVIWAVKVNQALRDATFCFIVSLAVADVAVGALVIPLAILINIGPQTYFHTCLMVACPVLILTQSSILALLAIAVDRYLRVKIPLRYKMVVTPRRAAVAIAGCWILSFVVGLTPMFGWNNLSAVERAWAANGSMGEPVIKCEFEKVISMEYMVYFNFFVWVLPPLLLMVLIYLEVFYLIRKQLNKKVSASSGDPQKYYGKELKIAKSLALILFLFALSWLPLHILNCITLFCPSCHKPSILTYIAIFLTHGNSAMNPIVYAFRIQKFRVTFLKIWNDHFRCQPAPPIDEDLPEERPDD

SMILES	Ki [1] [nM]	Ki [2, 4] [nM]	Ki [3, 4] [nM]	Ki [2] [nM]	Ki [3] [nM]
Cc1ncnc2ccc(-c3sc(NC(=O)N4CCN(C5CCN(C)CC5)CC4)nc3-c3cccc(C#N)c3)cc12 [Example 7.13, N-[4-(3-Cyanophenyl)-5-(4-methylquinazolin-6-yl)thiazol-2-yl]-4-(1-methyl-4-piperidyl)piperazine-1-carboxamide]	4.8	1.01	125	–	–
Cc1ncnc2ccc(-c3sc(NC(=O)N4CCN(CC#N)CC4)nc3-c3cccc(C#N)c3)cc12 [Example 7.15, 4-(Cyanomethyl)-N-[4-(3-cyanophenyl)-5-(4-methylquinazolin-6-yl)thiazol-2-yl]piperazine-1-carboxamide]	1.1	0.18	14	–	–
N#Cc1cccc(-c2nc(NC(=O)N3CC4(COC4)C3)sc2-c2ccc3ncncc3c2)c1 [Example 10, N-[4-(3-Cyanophenyl)-5-quinazolin-6-yl-thiazol-2-yl]-2-oxa-6-azaspiro[3.3]heptane-6-carboxamide]	4.7	0.85	7	–	–
Cc1ncnc2ccc(-c3sc(NC(=O)N4CC5(COCCN5)C4)nc3-c3cccc(C#N)c3)cc12 [Example 4.2, N-[4-(3-Cyanophenyl)-5-(4-methylquinazolin-6-yl)thiazol-2-yl]-8-oxa-2,5-diazaspiro[3.5]nonane-2-carboxamide]	3	–	–	0.35	34
Cc1ncnc2ccc(-c3sc(NC(=O)N4CCOC(CN(C)C)C4)nc3-c3cccc(C#N)c3)cc12 (stereo not drawn) [Example 7.8, N-[4-(3-Cyanophenyl)-5-(4-methylquinazolin-6-yl)thiazol-2-yl]-2-[(dimethylamino)methyl]morpholine-4-carboxamide]	2.4	0.14	13	–	–
Cc1cc(-c2sc(NC(=O)N3CC4(COC4)C3)nc2-c2cccc(C#N)c2)cn2ccnc12 [Example 29, N-[4-(3-Cyanophenyl)-5-(8-methylimidazo[1,2-a]pyridin-6-yl)thiazol-2-yl]-2-oxa-6-azaspiro[3.3]heptane-6-carboxamide]	1.3	1.88	4	–	–
Cc1ncnc2ccc(-c3sc(NC(=O)N4CCC5(COCCN5)C4)nc3-c3cccc(C#N)c3)cc12 (stereo not drawn) [Example 4.3, N-[4-(3-Cyanophenyl)-5-(4-methylquinazolin-6-yl)thiazol-2-yl]-9-oxa-2,6-diazaspiro[4.5]decane-2-carboxamide]	2.4	–	–	0.3	30
Cc1ncnc2ccc(-c3sc(NC(=O)N4CCC5(CC4)CN(C)CCO5)nc3-c3cccc(C#N)c3)cc12 [Example 7.10, N-[4-(3-Cyanophenyl)-5-(4-methylquinazolin-6-yl)thiazol-2-yl]-4-methyl-1-oxa-4,9-diazaspiro[5.5]undecane-9-carboxamide]	2.8	0.42	12	–	–
Cc1ncnc2ccc(-c3sc(NC(=O)N4CC[C@](C)(C#N)C4)nc3-c3cccc(C#N)c3)cc12 [Example 1, (3S)-3-Cyano-N-[4-(3-cyanophenyl)-5-(4-methylquinazolin-6-yl)thiazol-2-yl]-3-methyl-pyrrolidine-1-carboxamide]	0.9	0.12	2	–	–
Cc1ncnc2ccc(-c3sc(NC(=O)N4CC5CN(C)CC54)nc3-c3cccc(C#N)c3)cc12 (stereo not drawn) [Example 7.3, N-[4-(3-Cyanophenyl)-5-(4-methylquinazolin-6-yl)thiazol-2-yl]-3-methyl-3,6-diazabicyclo[3.2.0]heptane-6-carboxamide]	10.5	2.42	19	–	–
Cc1ncnc2ccc(-c3sc(NC(=O)N4CCC(N5CCOCC5)CC4)nc3-c3cccc(C#N)c3)cc12 [Example 7.14, N-[4-(3-Cyanophenyl)-5-(4-methylquinazolin-6-yl)thiazol-2-yl]-4-morpholino-piperidine-1-carboxamide]	5.4	2.61	150	–	–
Cc1ncnc2ccc(-c3sc(NC(=O)N4CCN[C@H](C(C)(C)O)C4)nc3-c3cccc(C#N)c3)cc12 [Example 7.16, (3S)-N-[4-(3-Cyanophenyl)-5-(4-methylquinazolin-6-yl)thiazol-2-yl]-3-(1-hydroxy-1-methyl-ethyl)piperazine-1-carboxamide]	2.6	0.18	17	–	–
Cc1ncnc2ccc(-c3sc(NC(=O)N4CCO[C@H](C(C)(C)O)C4)nc3-c3cccc(C#N)c3)cc12 (single isomer, unassigned) [Example 7.7b, (2S)—N-[4-(3-Cyanophenyl)-5-(4-methylquinazolin-6-yl)thiazol-2-yl]-2-(1-hydroxy-1-methyl-ethyl)morpholine-4-carboxamide or (2R)—N-[4-(3-cyanophenyl)-5-(4-methylquinazolin-6-yl)thiazol-2-yl]-2-(1-hydroxy-1-methyl-ethyl)morpholine-4-carboxamide]	1.5	0.2	9	–	–
Cc1nc(C)c(-c2sc(NC(=O)N3CC4(COC4)C3)nc2-c2cccc(C#N)c2)o1 [Example 15, N-[4-(3-Cyanophenyl)-5-(2,4-dimethyloxazol-5-yl)thiazol-2-yl]-2-oxa-6-azaspiro[3.3]heptane-6-carboxamide]	6.2	1.74	14	–	–
Cc1ncnc2ccc(-c3sc(NC(=O)N4CC5(CCO5)C4)nc3-c3cccc(C#N)c3)cc12 [Example 7.19, N-[4-(3-Cyanophenyl)-5-(4-methylquinazolin-6-yl)thiazol-2-yl]-1-oxa-6-azaspiro[3.3]heptane-6-carboxamide]	0.9	0.08	13	–	–
Cc1ncnc2ccc(-c3sc(NC(=O)N4CCN(C(C)C#N)CC4)nc3-c3cccc(C#N)c3)cc12 (stereo not drawn) [Example 7.5, 4-(1-Cyanoethyl)-N-[4-(3-cyanophenyl)-5-(4-methylquinazolin-6-yl)thiazol-2-yl]piperazine-1-carboxamide]	1.2	0.21	9	–	–
Cc1nc(C)c2cc(-c3sc(NC(=O)N4CC5(COC5)C4)nc3-c3cccc(C#N)c3)ccc2n1 [Example 9, N-[4-(3-Cyanophenyl)-5-(2,4-dimethylquinazolin-6-yl)thiazol-2-yl]-2-oxa-6-azaspiro[3.3]heptane-6-carboxamide]	6	5.45	70	–	–
Cc1ncnc2ccc(-c3sc(NC(=O)N4CCC(N5CCN(C)CC5)CC4)nc3-c3cccc(C#N)c3)cc12 [Example 7.12, N-[4-(3-Cyanophenyl)-5-(4-methylquinazolin-6-yl)thiazol-2-yl]-4-(4-methylpiperazin-1-yl)piperidine-1-carboxamide]	6.5	2.05	221	–	–
Cc1cc(-c2sc(NC(=O)N3CC4(COC4)C3)nc2-c2cccc(C#N)c2)cc2cnn(C)c12 [Example 30, N-[4-(3-Cyanophenyl)-5-(1,7-dimethylindazol-5-yl)thiazol-2-yl]-2-oxa-6-azaspiro[3.3]heptane-6-carboxamide]	13.2	0.59	14	–	–
Cc1cc(-c2sc(NC(=O)N3CC4(COC4)C3)nc2-c2cccc(C#N)c2)c2ccn(C)c2n1 [Example 24, N-[4-(3-Cyanophenyl)-5-(1,6-dimethylpyrrolo[2,3-b]pyridin-4-yl)thiazol-2-yl]-2-oxa-6-azaspiro[3.3]heptane-6-carboxamide]	7.2	10.5	245	–	–
Cc1ncnc2ccc(-c3sc(NC(=O)N4CC5CCCN(C)C5C4)nc3-c3cccc(C#N)c3)cc12 (stereo not drawn) [Example 7.11, N-[4-(3-Cyanophenyl)-5-(4-methylquinazolin-6-yl)thiazol-2-yl]-1-methyl-3,4,4a,5,7,7a-hexahydro-2H-pyrrolo[3,4-b]pyridine-6-carboxamide]	5.4	0.54	98	–	–
CCc1ncnc2ccc(-c3sc(NC(=O)N4CC5(COC5)C4)nc3-c3cccc(C#N)c3)cc12 [Example 13, N-[4-(3-Cyanophenyl)-5-(4-ethylquinazolin-6-yl)thiazol-2-yl]-2-oxa-6-azaspiro[3.3]heptane-6-carboxamide]	1.7	0.16	2	–	–
Cc1ncnc2ccc(-c3sc(NC(=O)N4CCOC(C(C)(C)O)C4)nc3-c3cccc(C#N)c3)cc12 (racemic) [Example 7.7, N-[4-(3-Cyanophenyl)-5-(4-methylquinazolin-6-yl)thiazol-2-yl]-2-(1-hydroxy-1-methyl-ethyl)morpholine-4-carboxamide]	3.6	0.26	9	–	–
